Reference: ChEMBL document CHEMBL5727973, “Azetidinyloxyphenylpyrrolidine compounds” (2020)

Target: 3',5'-cyclic-AMP phosphodiesterase 4B (Homo sapiens, UniProt Q07343)
Experiment: Inhibition In Vitro Assay: PDE4A, PDE4B, PDE4C, PDE4D, and PDE5 human recombinant proteins are expressed and purified from Saccharomyes cerevisiae that lack endogenous PDEs. The phosphodiesterase enzymes are diluted on ice with enzyme dilution buffer (25 mM Tris, pH 7.5, 0.1 mM DTT, 5.0 mM MgCl2, 100 mM NaCl, 5 μM ZnSO4, 100 μg/mL BSA) to give approximately 20%-40% hydrolysis of cyclic nucleotide monophosphate (cNMP) in the absence of inhibitor. The stock solution of test compounds are diluted on the Beckman BioMek™ 1000 workstation to span a concentration range of 4.5 log units in 0.5 log increments. The DMSO concentration in the final test system is 2.5% for all PDE enzymes. The final test compound concentration tested ranged from 0.03 nM to 1 μM. The assay is performed in a 96-well microtiter plate format on a Beckman BioMek™ 1000 robotic station. Each row of the plate represents a 10-point dose response curve containing blank (no enzyme), non-inhibited control, and inhibitor dilutions spanning 4.5 log units in concentration in 0.5 log increments. Assay stock solutions are loaded into the Biomek™ reservoirs (water, inhibitor diluent [2.5% or 10% DMSO], 5× PDE assay buffer, substrate, inhibitor solutions, enzyme solutions, snake venom nucleotidase, and charcoal suspension). The reaction is initiated with enzyme, and incubated for 15 minutes at 30° C. […]

Sequence of 3',5'-cyclic-AMP phosphodiesterase 4B (Q07343 whole entry): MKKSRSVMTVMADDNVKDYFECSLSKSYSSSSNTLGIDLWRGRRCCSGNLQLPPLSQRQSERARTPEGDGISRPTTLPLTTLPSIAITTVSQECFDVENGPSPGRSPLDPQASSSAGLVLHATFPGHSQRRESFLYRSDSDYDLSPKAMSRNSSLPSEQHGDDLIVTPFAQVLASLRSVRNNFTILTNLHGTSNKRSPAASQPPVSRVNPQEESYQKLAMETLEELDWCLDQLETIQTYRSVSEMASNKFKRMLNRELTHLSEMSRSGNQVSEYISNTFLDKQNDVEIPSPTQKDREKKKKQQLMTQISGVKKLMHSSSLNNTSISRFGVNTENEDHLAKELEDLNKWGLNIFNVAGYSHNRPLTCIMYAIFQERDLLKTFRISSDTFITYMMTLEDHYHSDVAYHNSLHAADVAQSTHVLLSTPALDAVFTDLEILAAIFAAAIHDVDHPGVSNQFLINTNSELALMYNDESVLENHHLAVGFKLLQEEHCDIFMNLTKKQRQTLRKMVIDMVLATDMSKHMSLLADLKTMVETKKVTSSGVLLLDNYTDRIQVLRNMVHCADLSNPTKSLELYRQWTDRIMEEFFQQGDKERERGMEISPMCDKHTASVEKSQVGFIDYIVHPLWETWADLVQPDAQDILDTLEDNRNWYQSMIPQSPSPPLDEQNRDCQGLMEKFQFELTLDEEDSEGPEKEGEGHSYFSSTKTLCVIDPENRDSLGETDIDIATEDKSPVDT

`COc1ccc([C@@H]2CN(C(=O)[C@@H](O)CO)C[C@@]2(C)[C@@H](C)O)cc1OC1CN(c2cnccn2)C1` was tested, and the IC50 was 14 nM.
